# Experimental data reported in paper PMC13056558 (Nature Microbiology, 2026).
# Experiments:
# thiol peroxidase HpTpx [1] = molecular target: T1, thiol peroxidase HpTpx (Helicobacter pylori, UniProt O25151); assay: Gel-based in situ competitive labelling against Metro-P3 (ABPP); assay type: cell-based; parameters: gene tpx; endogenous, H. pylori 26695 live cells
# T1 sequence (O25151 2-166): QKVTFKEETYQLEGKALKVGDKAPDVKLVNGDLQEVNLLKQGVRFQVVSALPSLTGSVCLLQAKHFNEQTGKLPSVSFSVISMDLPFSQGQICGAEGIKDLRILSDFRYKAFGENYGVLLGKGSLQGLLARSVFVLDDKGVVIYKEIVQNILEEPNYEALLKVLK
# [2] = molecular target: T2, 60 kDa chaperonin HpGroEL (Helicobacter pylori, UniProt P42383); assay: as above; assay type: cell-based; parameters: gene groEL; endogenous, H. pylori 26695 live cells
# thiol peroxidase HpTpx [3] = molecular target: T1, thiol peroxidase HpTpx; assay: In situ ABPP labelling ([…]), gel and LC-MS/MS, competed by Metro; assay type: cell-based; parameters: gene tpx; endogenous, H. pylori 26695 live cells
# [4] = molecular target: T2, 60 kDa chaperonin HpGroEL; assay: as above; assay type: cell-based; parameters: gene groEL; endogenous, H. pylori 26695 live cells
# [5] = molecular target: T2, 60 kDa chaperonin HpGroEL; assay: Intact protein MS and malachite green ATPase assay of modified enzyme; EC50 is from in situ competition with Metro-P3 in H. pylori; assay type: cell-based; parameters: gene groEL; recombinant HpGroEL, modified during anaerobic expression in E. coli
# thiol peroxidase HpTpx [6] = molecular target: T1, thiol peroxidase HpTpx; assay: Intact protein MS and peroxidase assay of modified enzyme; EC50 is from in situ competition with Metro-P3 in H. pylori; assay type: cell-based; parameters: gene tpx; recombinant HpTpx wild type, modified during anaerobic expression in E. coli
# thiol peroxidase HpTpx [7] = molecular target: T3, thiol peroxidase HpTpx (Helicobacter pylori, UniProt O25151, C94A); assay: X-ray co-crystal structure, […] Å (reduced amine form Metro*); assay type: binding
# T3 construct: gene tpx
# T2 sequence (P42383 whole entry): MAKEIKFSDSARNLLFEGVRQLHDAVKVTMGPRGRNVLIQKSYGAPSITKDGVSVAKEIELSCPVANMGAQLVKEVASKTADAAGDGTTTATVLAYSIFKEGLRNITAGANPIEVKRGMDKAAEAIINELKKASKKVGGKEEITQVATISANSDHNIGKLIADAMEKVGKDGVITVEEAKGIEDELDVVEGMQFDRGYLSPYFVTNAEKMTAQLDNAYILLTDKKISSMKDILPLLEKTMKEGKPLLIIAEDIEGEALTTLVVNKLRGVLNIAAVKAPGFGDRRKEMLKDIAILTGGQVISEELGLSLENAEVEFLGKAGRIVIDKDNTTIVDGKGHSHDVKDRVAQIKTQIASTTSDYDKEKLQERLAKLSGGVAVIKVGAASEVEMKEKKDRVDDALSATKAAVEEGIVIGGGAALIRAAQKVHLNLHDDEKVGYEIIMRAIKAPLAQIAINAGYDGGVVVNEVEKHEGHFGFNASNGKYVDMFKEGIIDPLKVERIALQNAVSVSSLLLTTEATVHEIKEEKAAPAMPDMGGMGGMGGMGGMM
smiles,measurement,setting,value
CCOCCn1c([N+](=O)[O-])cnc1C [MF-03],EC50,thiol peroxidase HpTpx [1],17 µM
same,EC50,[2],40 µM
C#CCOCCn1c([N+](=O)[O-])cnc1C [Metro-P1],"In situ ABPP labelling (1 μM), gel and LC-MS/MS, competed by Metro",thiol peroxidase HpTpx [3],18-kDa HpTpx band was solely diminished in case of ether derivatives Metro-P1 and Metro-P3 upon Metro pre-incubation
same,"In situ ABPP labelling (1 μM), gel and LC-MS/MS, competed by Metro",[4],a 60-kDa band decreased for all three probes
"Cc1ncc([N+](=O)[O-])n1CCO [Metro, Metronidazole]",EC50,[5],24 µM
same,EC50,thiol peroxidase HpTpx [6],250 µM
same,"X-ray co-crystal structure, 1.75 Å (reduced amine form Metro*)",thiol peroxidase HpTpx [7],forms an irreversible thioether bond with the CP residue
